We go through 57 compounds from publication PMC4821887, “Identification of chemicals that mimic transcriptional changes associated with autism, brain aging and neurodegeneration” (Nature Communications, 2016).

In this data set the test system is mouse cortical neuron cultures.

Counter-ions that a name gives are not always drawn. Like-named read-outs stand apart in the source and are kept apart here.

As to `C=C(C)CN(CC)c1c([N+](=O)[O-])cc(C(F)(F)F)cc1[N+](=O)[O-]` [Ethalfluralin], the “% Dead cells (vehicle subtracted)” value (mouse, 24 h, 10 µM) is recorded as 1.146%. On to `CCCOC(=O)NCCCN(C)C` [Propamocarb hydrochloride], for which the “% Dead cells (vehicle subtracted)” value was -1.887%. The same measure, in the same setting: the result for `CNc1cnn(-c2cccc(C(F)(F)F)c2)c(=O)c1Cl` [Norflurazon] reads -0.1097%.

On to `CS(=O)(=O)c1cc(C(F)(F)F)ccc1C(=O)c1cnoc1C1CC1` [Isoxaflutole], for which the “% Dead cells (vehicle subtracted)” value (mouse, 24 h, 10 µM) amounted to 2.416%. For `O=P(O)(O)CCCl` [Ethephon], where the note is “mouse, 24 h, 10 µM”, the “% Dead cells (vehicle subtracted)” value is -0.1299%. With `CCOP(=S)(OCC)Oc1ccc([N+](=O)[O-])cc1` [Parathion], the “% Dead cells (vehicle subtracted)” value is reported as -1.193%. `CCNc1nc(Cl)nc(NC(C)(C)C#N)n1` [Cyanazine]: the “% Dead cells (vehicle subtracted)” value was 0.5036%. Consider `CSc1nc(NC(C)C)nc(NC(C)C)n1` [Prometryn], for which the “% Dead cells (vehicle subtracted)” value (mouse, 24 h, 10 µM) is -5.322%. Take `O=c1n(Cl)c(=O)n(Cl)c(=O)n1Cl` [Symclosene (Trichloro-s-triazinetrione)]: the “% Dead cells (vehicle subtracted)” value is listed as 4.474%. In the case of `CCC(C)(CC)c1cc(NC(=O)c2c(OC)cccc2OC)on1` [Isoxaben], where the note is “mouse, 24 h, 10 µM”, the “% Dead cells (vehicle subtracted)” value is recorded as -1.274%. On to `C[Si](Cn1cncn1)(c1ccc(F)cc1)c1ccc(F)cc1` [Flusilazole], for which the “% Dead cells (vehicle subtracted)” value (mouse, 24 h, 10 µM) is -0.05737%. Take `CC1(C)C(C=C(Cl)Cl)C1C(=O)OC(C#N)c1ccc(F)c(Oc2ccccc2)c1` (stereo not drawn) [Cyfluthrin (Baythroid)]: the “% Dead cells (vehicle subtracted)” value was -3.677%. Take `N#Cc1c(Cl)cccc1Cl` [Dichlobenil]: the “% Dead cells (vehicle subtracted)” value (mouse, 24 h, 10 µM) turned out to be 8.856%. On to `CCCN(CCOc1c(Cl)cc(Cl)cc1Cl)C(=O)n1ccnc1` [Prochloraz], for which the “% Dead cells (vehicle subtracted)” value is given as -2.048%. For the compound `CCC(C)Nc1c([N+](=O)[O-])cc(C(C)(C)C)cc1[N+](=O)[O-]` (stereo not drawn) [Butralin], the “% Dead cells (vehicle subtracted)” value (mouse, 24 h, 10 µM) amounted to 4.6194%. In the case of `CCO/N=C(\CC)C1=C(O)CC(c2c(C)cc(C)cc2C)CC1=O` (stereo not drawn) [Tralkoxydim], the “% Dead cells (vehicle subtracted)” value came out at 4.508%. The same measure, in the same setting: with `CCOP(=O)(NC(C)C)Oc1ccc(SC)c(C)c1` (stereo not drawn) [Fenamiphos] the figure was 5.708%; with `CCOP(=S)(OCC)Oc1nc(Cl)n(C(C)C)n1` [Isazofos], -3.842%. Same read-out and setting: the result for `Oc1cc(Cl)ccc1Oc1ccc(Cl)cc1Cl` [Triclosan] reads 0.6048%; that for `C#CCN1C(=O)COc2cc(F)c(N3C(=O)C4=C(CCCC4)C3=O)cc21` [Flumioxazin], 7.054%; that for `CC1COC(Cn2cncn2)(c2ccc(Oc3ccc(Cl)cc3)cc2Cl)O1` (stereo not drawn) [Difenoconazole], -2.028%. The same measure, in the same setting: the result for `COP(=O)(OC)OC=C(Cl)Cl` [Dichlorvos] reads 0.4159%; that for `CCCCOC(=O)[C@@H](C)Oc1ccc(Oc2ccc(C#N)cc2F)cc1` [Cyhalofop-butyl], 0.4476%. Consider `COc1cc(OC)nc(Sc2cccc(Cl)c2C(=O)O)n1` [Pyrithiobac-sodium], for which the “% Dead cells (vehicle subtracted)” value (mouse, 24 h, 10 µM) is 0.5188%. For `Clc1ccccc1-c1nnc(-c2ccccc2Cl)nn1` [Clofentezine], the “% Dead cells (vehicle subtracted)” value stood at 0.4977%.

Consider `CCCCC(CC)CN1C(=O)C2C3C=CC(C3)C2C1=O` (stereo not drawn), for which the “% Dead cells (vehicle subtracted)” value is -0.09059%.

`CC(C)NC(=O)N1CC(=O)N(c2cc(Cl)cc(Cl)c2)C1=O` [Iprodione]: where the note is “mouse, 24 h, 10 µM”, the “% Dead cells (vehicle subtracted)” value amounted to 8.376%. For the compound `CC(C)N1C(=O)c2ccccc2NS1(=O)=O` [Bentazone], the “% Dead cells (vehicle subtracted)” value was -0.5905%. The same measure, in the same setting: the result for `C#CC(C)(C)NC(=O)c1cc(Cl)cc(Cl)c1` [Propyzamide] reads 1.57%. Same read-out and setting: with `CNC(=O)CSP(=S)(OC)OC` [Dimethoate] the figure was -3.6%. Still for that read-out and setting: the result for `COP(=S)(OC)Oc1ccc([N+](=O)[O-])cc1` [Parathion-methyl] reads 1.486%; that for `Cc1c(COC(=O)[C@@H]2[C@H](/C=C(\Cl)C(F)(F)F)C2(C)C)cccc1-c1ccccc1` (racemic) [Bifenthrin], 0.2358%; that for `Cc1ccc(/N=C/N(C)/C=N/c2ccc(C)cc2C)c(C)c1` [Amitraz], 0.3334%.

Take `CCCCC(C#N)(Cn1cncn1)c1ccc(Cl)cc1` (stereo not drawn) [Myclobutanil]: the “% Dead cells (vehicle subtracted)” value is -1.6229%.

For the compound `CCOP(=S)(Oc1cnc(C(C)(C)C)nc1)OC(C)C` (stereo not drawn) [Tebupirimfos], the “% Dead cells (vehicle subtracted)” value amounted to 0.1923%. `COP(=O)(OC)C(O)C(Cl)(Cl)Cl` (stereo not drawn) [Trichlorfon]: the “% Dead cells (vehicle subtracted)” value came to 2.414%.

As to `CNC(=O)Oc1ccccc1OC(C)C` [Propoxur], the “% Dead cells (vehicle subtracted)” value came out at 0.5409%. For `CN(C)c1nc(=O)n(C2CCCCC2)c(=O)n1C` [Hexazinone], the “% Dead cells (vehicle subtracted)” value (mouse, 24 h, 10 µM) is listed as -2.629%.

Regarding `COC(=O)CSc1cc(/N=c2\sc(=O)n3n2CCCC3)c(F)cc1Cl` [Fluthiacet-methyl], the “% Dead cells (vehicle subtracted)” value (mouse, 24 h, 10 µM) was -0.383%. Turning to `CCOP(=O)(OCC)Oc1cc(C)nc(C(C)C)n1` [Diazoxon], the “% Dead cells (vehicle subtracted)” value was -0.938%. As for `CC(C)C1(C)N=C(c2nc3ccccc3cc2C(=O)O)NC1=O` (stereo not drawn) [Imazaquin], the “% Dead cells (vehicle subtracted)” value is reported as -2.73%. `CCOC(=O)C(C)Oc1ccc(Oc2nc3ccc(Cl)cc3o2)cc1` (stereo not drawn) [Fenoxaprop-ethyl]: where the note is “mouse, 24 h, 10 µM”, the “% Dead cells (vehicle subtracted)” value came to 9.924%. As for `COP(=O)(OC)O/C(C)=C/C(=O)N(C)C` [Dicrotophos], the “% Dead cells (vehicle subtracted)” value is -0.1238%. With `O=[N+]([O-])NC1=NCCN1Cc1ccc(Cl)nc1` [Imidacloprid], the “% Dead cells (vehicle subtracted)” value (mouse, 24 h, 10 µM) is on record as -3.0763%. The same measure, in the same setting: with `O=C1c2ccccc2C(=O)N1SC(Cl)(Cl)Cl` [Folpet] the figure was -1.248%.

In the case of `O=S1OCC2C(CO1)C1(Cl)C(Cl)=C(Cl)C2(Cl)C1(Cl)Cl` (stereo not drawn) [Endosulfan], the “% Dead cells (vehicle subtracted)” value is on record as -0.8816%. Turning to `CCNc1nc(N)nc(Cl)n1`, the “% Dead cells (vehicle subtracted)” value came to 1.813%. Regarding `Cc1cc(C2CC2)nc(Nc2ccccc2)n1` [Cyprodinil], the “% Dead cells (vehicle subtracted)” value (mouse, 24 h, 10 µM) is -6.385%. Take `COc1cc(Cl)c(OC)cc1Cl` [Chloroneb]: the “% Dead cells (vehicle subtracted)” value is -0.9422%. As to `Cc1cc(Cl)ccc1OCC(=O)O` [MCPA (Agroxone)], the “% Dead cells (vehicle subtracted)” value amounted to 9.261%.

With `CCC(C)n1c(=O)[nH]c(C)c(Br)c1=O` (stereo not drawn) [Bromacil], the “% Dead cells (vehicle subtracted)” value was 5.5524%.

As to `COc1ccc(C(=CC(=O)N2CCOCC2)c2ccc(Cl)cc2)cc1OC` [Dimethomorph], the “% Dead cells (vehicle subtracted)” value (mouse, 24 h, 10 µM) is recorded as -1.666%.

Consider `Clc1cccc(C(Cl)(Cl)Cl)n1` [Nitrapyrin], for which the “% Dead cells (vehicle subtracted)” value (mouse, 24 h, 10 µM) turned out to be 0.473%. With `COP(=O)(OC)OC(Br)C(Cl)(Cl)Br` (stereo not drawn) [Naled], the “% Dead cells (vehicle subtracted)” value is recorded as -0.709%.

Consider `CCCCCOC(=O)COc1cc(N2C(=O)C3=C(CCCC3)C2=O)c(F)cc1Cl` [Flumiclorac-pentyl], for which the “% Dead cells (vehicle subtracted)” value (mouse, 24 h, 10 µM) is reported as -0.6581%. On the same count and under the same terms, with `COC(=O)c1ccccc1CS(=O)(=O)NC(=O)Nc1nc(OC)cc(OC)n1` [Bensulfuron-methyl] the figure was -2.606%. Regarding `CC(C)[C@H](C(=O)O[C@H](C#N)c1cccc(Oc2ccccc2)c1)c1ccc(Cl)cc1` [Esfenvalerate], the “% Dead cells (vehicle subtracted)” value was determined as 4.898%.
